Test: Inhibition of CDC42

## O=C(Nc1cc2cc[nH]c(=O)c2cc1Cl)[C@@H]1CNC[C@H]1c1ccc(Cl)cc1 [(3S,4R)-N-(7-chloro-1-oxo-1,2-dihydroisoquinolin-6-yl)-4-(4-chlorophenyl)pyrrolidine-3-carboxamide]
  IC50: 54 nM

From BindingDB's records for doi:10.1016/j.bmcl.2010.04.069 (Boehringer Ingelheim Pharmaceuticals, 2010)
